target: Adenosine kinase (Homo sapiens, UniProt P55263); experiment: In vitro inhibitory concentration against Adenosine kinase in cycstolic assay
Sequence (P55263 whole entry): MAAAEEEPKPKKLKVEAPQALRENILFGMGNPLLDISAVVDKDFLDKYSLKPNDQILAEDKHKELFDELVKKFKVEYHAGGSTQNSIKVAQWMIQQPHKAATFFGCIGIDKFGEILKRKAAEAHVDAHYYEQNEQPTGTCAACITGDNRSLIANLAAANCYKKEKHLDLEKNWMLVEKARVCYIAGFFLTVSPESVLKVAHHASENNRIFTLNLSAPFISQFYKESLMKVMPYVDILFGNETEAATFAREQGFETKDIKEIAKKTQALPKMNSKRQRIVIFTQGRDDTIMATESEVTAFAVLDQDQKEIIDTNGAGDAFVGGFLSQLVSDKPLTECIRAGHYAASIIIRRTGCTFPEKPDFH

Row | Compound | IC50 [nM]
1 | Cn1nc(-c2cccc(Br)c2)c2c(C#Cc3ccc(N4CCOCC4)nc3)ncnc21 | 82
2 | c1ccc(CCCCNc2ncnc3nc(-c4ccc(N5CCOCC5)nc4)cnc23)cc1 | 82
3 | Nc1ncnc2nc(-c3ccc(N4CCOCC4)nc3)cnc12 | 460
4 | Nc1ncnc2cc(-c3ccc(N4CCOCC4)nc3)n(Cc3ccccc3)c12 | > 1000
5 | c1ccc(CCNc2ncnc3nc(-c4ccc(N5CCOCC5)nc4)cnc23)cc1 | 120
6 | CN(C)c1ccc(C#Cc2ncnc3n[nH]c(-c4ccccc4)c23)cn1 | 100
7 | Brc1cccc(-c2nn(Cc3ccccc3)c3ncnc(C#Cc4ccc(N5CCOCC5)nc4)c23)c1 | > 1000
8 | c1ccc2c(CCNc3ncnc4nc(-c5ccc(N6CCOCC6)nc5)cnc34)c[nH]c2c1 | 300

Compounds with a lower IC50, results first:

Row | IC50 [nM] | Compound
9 | 22 | Nc1ncnc(C#Cc2ccc(N3CCOCC3)nc2)c1Cc1cccc(Br)c1
10 | 30 | CN(Cc1ccccc1)c1c(N)ncnc1C#Cc1ccc(N2CCOCC2)nc1
11 | 72 | c1ccc(CCCNc2ncnc3nc(-c4ccc(N5CCOCC5)nc4)cnc23)cc1
12 | 22 | Brc1cccc(-c2[nH]nc3ncnc(C#Cc4ccc(N5CCOCC5)nc4)c23)c1
13 | 75 | CN(C)c1ccc(C#Cc2[nH]cnc3nnc(-c4cccc(Br)c4)c2-3)cn1
14 | 7.5 | CN(C)c1ccc(C#Cc2ncnc3c2c(-c2cccc(Br)c2)nn3C)cn1
